Experimental data taken from patent publication EP0073100B1, “Beta-lactam compounds, their preparation and their use” (BEECHAM GROUP PLC, priority 1981, dated 1983).
Converted amounts (≈) assume the structure as drawn.

Tests used:
Experiment in all cases: MIC, growth inhibition in nutrient broth
Format in all cases: cell-based
[1] = test system: Strep. pyogenes; settings: Streptococcus pyogenes
[2] = test system: Strep. faecalis; settings: Enterococcus faecalis
[3] = test system: Staph. aureus Russell; settings: Staphylococcus aureus, Staph. aureus Russell (β-lactamase-producing benylpenicillin-resistant strain)
[4] = test system: E. coli; settings: Escherichia coli
[5] = test system: B. subtilis; settings: Bacillus subtilis
[6] = test system: Staph. aureus Oxford; settings: Staphylococcus aureus
[7] = test system: S. typhimurium; settings: Salmonella enterica
[8] = test system: Proteus mirabilis
[9] = test system: Klebsiella aerogenes

COC(=O)C1C[C@@H]2[C@H](NC(=O)COc3ccccc3)C(=O)N2[C@H]1C(=O)O (mixture of isomers) [compound 17, (2RS, 5RS, 6SR) 1-Aza-3-methoxycarbonyl-6-phenoxyacetamidobicyclo [3.2.0] -heptan-7-one-2-carboxylic acid]
MIC [1]: < 10.5 µg/mL | MIC [2]: 8 µg/mL (≈ 22.1 µM) | MIC [3]: 62 µg/mL (≈ 171 µM) | MIC [4]: 250 µg/mL (≈ 690 µM) | MIC [5]: 2 µg/mL (≈ 5.52 µM) | MIC [6]: < 0.5 µg/mL | MIC [7]: 250 µg/mL (≈ 690 µM) | MIC [8]: 62 µg/mL (≈ 171 µM) | MIC [9]: 250 µg/mL (≈ 690 µM)
